Tested on: human β2-adrenergic receptor, β-galactosidase fusion protein expressed from λβ2 (λgt11) in E. coli Y1089
Settings: 20 pM ICYP; non-radiolabeled agonists at 10^-8, 10^-8 and 10^-4 M; FIG. 3
Protocol: In order to further characterize the specificity of the test by replication on filters, 3 β-adrenergic agonists were tested on [λβ2] cells in bond-competition tests.
The bacterial cells were seeded on slabs of LB-agar of 10 cm of diameter and were grown for 12 hours at 30° C. Circular nitrocellulose filters (of 8.5 cm of diameter), previously drenched in 10 mM IPTG in the case of the expression of [λgt11], [λβ1] and [λβ2] lysogens were then laid above the bacterial colonies; the expression of proteins was induced for 2 hours, at 30° C. for the lysogenic colonies, and at 42° C. for the colonies transformed with pUEX1 and pUEXβ2, before the removal of the filters. The subsequent treatments were carried out at room temperature, with constant rocking. The replications on filter of the bacterial colonies were first incubated for 60 minutes in 10 ml of bond-establishing buffer (90 mM NaCl, 10 mM Tris-HCl pH 7.5) containing 20 mg/ml of bovine serumalbumin, and were then transferred for 90 minutes in 10 ml of bond-establishing buffer containing 20 mg/ml of bovine serumalbumin and 20 pM ICYP (2000 Ci/mmol, Amersham, U.K.). […]

SMILES	order of power of competition for the bond of ICYP
CNC[C@H](O)c1ccc(O)c(O)c1 [epinephrine, (-)-epinephrine]	isoprotenerol>epinephrine>norepinephrine
NC[C@H](O)c1ccc(O)c(O)c1 [norepinephrine, (-)-norepinephrine]	isoprotenerol>epinephrine>norepinephrine
